Converted amounts (≈) assume the structure as drawn. Where two headings read alike, the source gives them in different places.
Experiments:
[1] = tested on: Gli1 mRNA expression in the Hh-dependent murine BCC cell line ASZ001; assay: Hh inhibition: Gli1 mRNA expression in ASZ001 cells (qPCR); format: cell-based; details: for IC50: ASZ001 cells
Experimental: In order to continue SAR exploration of this region of the scaffold, efforts sought to synthesize and evaluate analogues that continue the scaffold truncation that was previously probed by removing the phenyl ring on the ‘right side’ of the scaffold and directly appending the 3-phenolic carboxylic acid of 2 to the piperazine amine to provide analogue 3. This analogue was evaluated for its ability to decrease Gli1 mRNA expression in the Hh-dependent murine BCC cell line ASZ001.
(§1) General protocols for cell culture, qPCR, and Hh inhibition in ASZ001 cells, C3H10T1/2 cells, and Sufu^−/− MEFs cells are as previously described (Pace et al. “Repurposing the clinically efficacious antifungal agent itraconazole as an anticancer chemotherapeutic. J. Med. Chem. 2016, 59, 3635-3649; Maschinot et al. “Synthesis and evaluation of third generation vitamin D3 analogues as inhibitors of Hedgehog signaling.” Eur. J. Med. Chem. 2019, 162, 495-506.). HC-04 cells were maintained in Dulbecco's modified Eagle's medium (Gibco Life Technologies) supplemented with 10% heat-inactivated fetal bovine serum (Gibco) and 1% pen-strep (Gibco) at 37° C. in 5% CO2. Cells were split 1:5 every 2-3 days, once they reached ˜80% confluency. Antiproliferation assay against HC-04 cells was using MTS method. The general protocol was the same as described earlier. (Banerjee et al. “Evaluation of vitamin D3 A-ring analogues as hedgehog pathway inhibitors.” Bioorg. Med. Chem. Lett. 2012, 22, pp. 1330-1334.) All data were analyzed with GraphPad Prism 5 and reported values represent the mean±SEM for at least two separate experiments carried out in triplicate for qPCR assay; or performed for at least three separate experiments carried out in quadruplicate for MTS assay.

[2] = PBS solubility
[3] = tested on: HC-04 cells; assay: in vitro; format: cell-based, human
Experimental: (§2) The activity for both metabolites prompted a study of their PK profile (Table 3). […] In addition, significant improvements in solubility at pH 7.4 and pH 4.0 compared to ITZ were found for analogue 21. Finally, the general toxicity of compounds 11 and 21 were evaluated by exploring their anti-proliferative activity in HC-04 cells, a human hepatocyte-derived cell line that abundantly expresses drug metabolizing enzymes (Table 5).
as §1

[4] = in vitro; format: cell-based, human; details: human
Experimental: as §2, §1

[5] = tested on: Gli1 mRNA in the Hh-dependent mouse embryonic fibroblast C3H10T1/2 cell line; assay: Gli1 mRNA down-regulation in C3H10T1/2 cells (qPCR); format: cell-based; details: Mean ± SEM
Experimental: (§3) Both metabolites retain potent inhibition of Hh signaling (Table 3). […] Based on the improved activity of the truncated analogue 21, which contains approximately half of the intact ITZ scaffold, this analogue was also evaluated in Sufu^−/− mouse embryonic fibroblasts (MEFs) to determine whether Smo is still the most likely target of the metabolite.
as §1

[6] = Microsomal stability in human liver microsomes; details: for Microsomal Stability T1/2 / Microsomal Stability Clint / half-life / microsomal CLint: human liver microsomes; for Microsomal Stability Clint: predicted intrinsic clearance; for half-life / microsomal CLint: human
[7] = human, microsomes
[8] = tested on: Sufu−/− mouse embryonic fibroblasts (MEFs); assay: Hh inhibition in Sufu−/− MEFs; format: cell-based
Experimental: as §3
General protocols for cell culture, qPCR, and Hh inhibition in ASZ001 cells, C3H10T1/2 cells, and Sufu^−/− MEFs cells are as previously described (Pace et al. “Repurposing the clinically efficacious antifungal agent itraconazole as an anticancer chemotherapeutic. J. Med. Chem. 2016, 59, 3635-3649; Maschinot et al. “Synthesis and evaluation of third generation vitamin D3 analogues as inhibitors of Hedgehog signaling.” Eur. J. Med. Chem. 2019, 162, 495-506.). […] (Banerjee et al. “Evaluation of vitamin D3 A-ring analogues as hedgehog pathway inhibitors.” Bioorg. Med. Chem. Lett. 2012, 22, pp. 1330-1334.) All data were analyzed with GraphPad Prism 5 and reported values represent the mean±SEM for at least two separate experiments carried out in triplicate for qPCR assay; or performed for at least three separate experiments carried out in quadruplicate for MTS assay.

[9] = Mus musculus, Gli1 mRNA expression, Mean ± SEM of at least two experiments in triplicate, read-out: ASZ001, IC50
[10] = C3H 10T1/2, Gli1 expression up-regulated by recombinant mouse sonic hedgehog (SHh), read-out: C3H10T1/2, IC50, SHh
[11] = Mus musculus, C3H 10T1/2, Gli1 expression up-regulated by oxysterols (OHCs), read-out: C3H10T1/2, IC50, OHCs
[12] = Gli1 mRNA expression, Mean ± SEM of at least two experiments in triplicate, read-out: ASZ001, IC50

C[C@]1(c2ccc(Cl)cc2Cl)OC[C@@H](COc2ccc(N3CCN(C(=O)c4cccnc4)CC3)cc2)O1 [Compound 6]
IC50 [1, 9]: 1300 ± 310 nM

C[C@]1(c2ccc(Cl)cc2Cl)OC[C@@H](COc2ccc(N3CCN(C(=O)c4ccccn4)CC3)cc2)O1 [Compound 5]
IC50 [1, 9]: 1420 ± 300 nM

C[C@@]1(c2ccc(Cl)cc2Cl)OCC(COc2ccc(N3CCN(C(=O)N/N=C/c4cccc(O)c4)CC3)cc2)O1 (some centres unmarked) [Compound 20]
less active (Hh inhibition) ([1]; 2R,4R-trans 20 compared with cis 18, ASZ001): approximately 5 fold | IC50 [1, 9]: 580 nM

C[C@]1(c2ccc(Cl)cc2Cl)OC[C@@H](COc2ccc(N3CCN(C(=O)CCc4cccc(O)c4)CC3)cc2)O1 [Compound 11]
IC50 ([1]; Mus musculus, read-out: IC50 value (anti-Hh activity)): 81 nM | IC50 [1, 9]: 81 nM | Solubility, PBS pH 4.0 [2]: 0.13 μM | Solubility, PBS pH 7.4 [2]: 0.03 μM | GI50 ([3]; human): 13200 nM | GI50 [4]: 13200 ± 500 nM | IC50 [5, 10]: 170 ± 90 nM | IC50 [5, 11]: 650 ± 70 nM | Microsomal Stability T1/2 [6]: 3.2 min | Microsomal Stability Clint [6]: 218 ± 9.7 µL/min/mg

C[C@]1(c2ccc(Cl)cc2Cl)OCC(COc2ccc(N3CCN(CCCc4cccc(O)c4)CC3)cc2)O1 (some centres unmarked) [Compound 23]
IC50 [1, 9]: 870 nM | solubility ([2]; pH 4, aqueous buffer): 0.13 µM (≈ 0.0725 µg/mL) | solubility ([2]; pH 7.4, aqueous buffer): 0.02 µM (≈ 0.0112 µg/mL) | half-life [6]: 14 min | microsomal CLint [6]: 50 ± 0.8 µL/min/mg

N-(4-(4-(((2S,4R)-2-(2,4-Dichlorophenyl)-2-Methyl-1,3-Dioxolan-4-yl)Methoxy)Phenyl)Piperazin-l-yl)-2-((4-hydroxyphenyl)methylene)Hydrazinecarboxamide [Compound 19]
IC50 [1, 12]: 960 nM | Solubility, PBS pH 4.0 (pH 4): 0.05 μM | Solubility, PBS pH 7.4: 0.02 μM | Microsomal Stability T1/2 [7]: 11.4 ± 0.2 min

C[C@]1(c2ccc(Cl)cc2Cl)OC[C@@H](COc2ccc(N3CCN(C(=O)CCc4ccc(O)cc4)CC3)cc2)O1 [Compound 13]
IC50 [1, 9]: 260 ± 30 nM

C[C@]1(c2ccc(Cl)cc2Cl)OC[C@@H](COc2ccc(N3CCN(C(=O)c4ccc([N+](=O)[O-])cc4)CC3)cc2)O1 [Compound 8]
IC50 [1, 9]: 160 nM

C[C@]1(c2ccc(Cl)cc2Cl)OC[C@@H](COc2ccc(N3CCN(C(=O)CCc4ccccc4)CC3)cc2)O1 [Compound 15]
IC50 [1, 9]: 230 nM

COc1cccc(CCC(=O)N2CCN(c3ccc(OC[C@@H]4CO[C@](C)(c5ccc(Cl)cc5Cl)O4)cc3)CC2)c1 [Compound 16]
IC50 [1, 9]: 460 nM

N-(4-(4-(((2S,4R)-2-(2,4-Dichlorophenyl)-2-Methyl-1,3-Dioxolan-4-yl)Methoxy)Phenyl)Piperazin-l-yl)-2-((3-hydroxyphenyl)methylene)Hydrazinecarboxamide [Compound 18]
IC50 [1, 12]: 120 nM

C[C@]1(c2ccc(Cl)cc2Cl)OC[C@@H](COc2ccc(N3CCN(C(=O)c4cccc(O)c4)CC3)cc2)O1 [Compound 3]
IC50 [1, 9]: 260 nM | Solubility, PBS pH 4.0 [2]: 0.31 μM | Solubility, PBS pH 7.4 [2]: 0.17 μM | Microsomal Stability T1/2 [6]: 15.9 ± 0.2 min | Microsomal Stability Clint [6]: 43 ± 0.6 µL/min/mg

C[C@]1(c2ccc(Cl)cc2Cl)OC[C@@H](COc2ccc(N3CCN(C(=O)/C=C/c4cccc(O)c4)CC3)cc2)O1 [Compound 12]
IC50 [1, 9]: 220 ± 30 nM | loss in Hh inhibitory activity ([1]; trans-alkene 12 compared with 11, ASZ001): approximately 3 fold

C[C@]1(c2ccc(Cl)cc2Cl)OC[C@@H](COc2ccc(N3CCN(C(=O)c4ccc(N)cc4)CC3)cc2)O1 [Compound 9]
IC50 [1, 9]: 280 nM

C[C@]1(c2ccc(Cl)cc2Cl)OC[C@@H](COc2ccc(N3CCN(C(=O)Cc4cccc(O)c4)CC3)cc2)O1 [Compound 10]
IC50 [1, 9]: 380 ± 40 nM | Solubility, PBS pH 4.0 [2]: 0.25 μM | Solubility, PBS pH 7.4 [2]: 0.13 μM | more stable (HLM stability) ([6]; 10 compared with 11, human liver microsomes): approximately 6.5 fold | Microsomal Stability T1/2 [6]: 20.4 ± 0.4 min | Microsomal Stability Clint [6]: 33.9 ± 0.6 µL/min/mg

C[C@]1(c2ccc(Cl)cc2Cl)OCC(COc2ccc(N3CCN(C(=O)CCc4ccc(O)c(O)c4)CC3)cc2)O1 (some centres unmarked) [Compound 22]
IC50 [1, 9]: 89 nM | solubility ([2]; pH 7.4, aqueous buffer): 0.84 µM (≈ 0.494 µg/mL) | half-life [6]: 6.6 min | microsomal CLint [6]: 104.7 ± 0.1 µL/min/mg

C[C@]1(c2ccc(Cl)cc2Cl)OC[C@@H](COc2ccc(N3CCN(C(=O)/C=C/c4ccc(O)cc4)CC3)cc2)O1 [Compound 14, 4-Hydroxy-N-(4-(4-(((2S,4R)-2-(2,4-Dichlorophenyl)-2-Methyl-1,3-Dioxolan-4-yl)Methoxy)Phenyl)Piperazin-1-yl)Cinnamamide]
IC50 [1, 9]: 360 ± 50 nM

C[C@]1(c2ccc(Cl)cc2Cl)OC[C@@H](COc2ccc(N3CCN(C(=O)c4ccc(O)cc4)CC3)cc2)O1 [Compound 4]
IC50 [1, 9]: 580 nM

C[C@]1(c2ccc(Cl)cc2Cl)OC[C@@H](COc2ccc(N3CCN(C(=O)c4ccncc4)CC3)cc2)O1 [Compound 7]
IC50 [1, 9]: 570 nM

C[C@]1(c2ccc(Cl)cc2Cl)OC[C@@H](COc2ccc(N3CCN(C(=O)CCCc4ccc(O)cc4)CC3)cc2)O1 [Compound 17, 4-Hydroxy-N-(4-(4-(((2S,4R)-2-(2,4-Dichlorophenyl)-2-Methyl-1,3-Dioxolan-4-yl)Methoxy)Phenyl)Piperazin-1-yl)Phenylbutyric Amide]
IC50 [1, 9]: 470 nM

C[C@]1(c2ccc(Cl)cc2Cl)OC[C@@H](COc2ccc(N3CCNCC3)cc2)O1 [Compound 21, 1-(4-(((2S,4R)-2-(2,4-Dichlorophenyl)-2-Methyl-1,3-Dioxolan-4-yl)Methoxy)Phenyl)Piperazine]
IC50 [1, 9]: 22 nM | Solubility, PBS pH 4.0 [2]: 169.3 μM | Solubility, PBS pH 7.4 [2]: 11.7 μM | GI50 ([3]; human): 27300 nM | anti-Hh activity in Sufu−/− MEFs [8]: completely abolished | IC50 [5, 10]: 1530 ± 200 nM | IC50 [5, 11]: 2700 ± 200 nM | Microsomal Stability T1/2 [6]: 50.7 min | Microsomal Stability Clint [6]: 13.7 ± 0.4 µL/min/mg

Itraconazole [ITZ, reference compound]
IC50 [1, 12]: 140 ± 20 nM | GI50 [3]: > 50000 nM | Solubility, PBS pH 7.4: 0.80 μM | IC50 ([5]; Gli1 expression up-regulated by oxysterols (OHCs), read-out: C3H10T1/2, IC50, OHCs): 5900 ± 1300 nM | IC50 ([5]; Gli1 expression up-regulated by recombinant mouse sonic hedgehog (SHh), read-out: C3H10T1/2, IC50, SHh): 240 ± 200 nM | Microsomal Stability T1/2 [7]: 27.0 ± 6.2 min

CS(=O)(=O)c1ccc(C(=O)Nc2ccc(Cl)c(-c3ccccn3)c2)c(Cl)c1 [Vismodegib, reference compound]
GI50 [4]: > 100000 nM | IC50 [5, 10]: 22 ± 20 nM | IC50 [5, 11]: 10 ± 12 nM

Reference: patent publication US12435067B2, “Truncated itraconazole analogues and methods of use thereof” (University of Connecticut, priority 2019, dated 2025)
